Columns and labels:
[1] = tested on: Raynaud phenomenon attacks; details: intravenous; cited from earlier work
[2] = tested on: cold-induced vasoconstriction in the rabbit foot; assay: Intra-arterial dosing in anesthetized rabbits, peripheral cooling of hind foot; assay type: in vivo, New Zealand White rabbit; details: intra-arterial 0.05 then 0.1 mg/kg; left hind foot in 40° C., then 15° C. water bath
Protocol: A study was conducted to assess the effects of intra-arterial dosing of Compound 1 and ketanserin on body temperature, peripheral cooling and peripheral blood flow in naïve anesthetized male New Zealand White rabbits.
Formulations of each test compound were prepared by adding saline and vortexing and sonicating until a clear solution was obtained.
Rabbits were sedated with ketamine/xylazine (25/5 mg/kg, subcutaneous) and then intubated and anesthetized with 1-2% isoflurane driven by 100% oxygen (1-2 L/min). Animals were mechanically ventilated and normal body temperature (38-40° C.) was maintained using an external source of heat (e.g., circulating water blanket, heated surgery table). The femoral incision site was infiltrated with 1 mg/kg ID bupivacaine. A catheter for dosing was placed via cutdown in the left femoral artery. […]
At the start of Dose 1 administration, each rabbit's left hind foot was placed in a water bath set to maintain approximately 40° C. […] At 30 minutes post dose start of Dose 2, in Groups 4-6 only, each rabbit's left hind foot was removed to room temperature, monitored and dosed for an additional 15 minutes.
Average percent change of each temperature and blood flow between baseline and each minute of dose administration was determined relative to time-matched vehicle control data.

[3] = target: human 5-HT2A (Homo sapiens, UniProt P28223); assay: Receptor affinity, 5-HT2A; assay type: binding
human 5-HT2A, sequence (P28223 whole entry): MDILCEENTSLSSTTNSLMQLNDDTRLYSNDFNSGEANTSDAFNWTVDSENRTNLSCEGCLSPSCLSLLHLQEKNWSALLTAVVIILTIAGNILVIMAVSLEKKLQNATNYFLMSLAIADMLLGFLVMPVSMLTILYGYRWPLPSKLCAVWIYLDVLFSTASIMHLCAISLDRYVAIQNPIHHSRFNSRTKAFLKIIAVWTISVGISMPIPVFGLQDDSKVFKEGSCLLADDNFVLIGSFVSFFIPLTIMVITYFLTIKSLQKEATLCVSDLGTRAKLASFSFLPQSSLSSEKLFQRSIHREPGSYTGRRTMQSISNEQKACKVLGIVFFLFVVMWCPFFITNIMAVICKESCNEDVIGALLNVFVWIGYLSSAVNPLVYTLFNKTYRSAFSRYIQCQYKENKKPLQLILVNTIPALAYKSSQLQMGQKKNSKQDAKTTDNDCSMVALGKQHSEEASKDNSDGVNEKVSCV
Description: (§1) M1 refers to N-(4-(2-(2-hydroxyethylamino)ethoxy)-3-(1-methyl-1H-pyrazol-5-yl)phenyl)-3-methoxybenzamide. M2 refers to N-(4-(2-aminoethoxy)-3-(1-methyl-1H-pyrazol-5-yl)phenyl)-3-methoxybenzamide.

[4] = target: 5-HT2B receptor (Homo sapiens, UniProt P41595); assay: Receptor affinity, 5-HT2B; assay type: binding
5-HT2B receptor, sequence (P41595 whole entry): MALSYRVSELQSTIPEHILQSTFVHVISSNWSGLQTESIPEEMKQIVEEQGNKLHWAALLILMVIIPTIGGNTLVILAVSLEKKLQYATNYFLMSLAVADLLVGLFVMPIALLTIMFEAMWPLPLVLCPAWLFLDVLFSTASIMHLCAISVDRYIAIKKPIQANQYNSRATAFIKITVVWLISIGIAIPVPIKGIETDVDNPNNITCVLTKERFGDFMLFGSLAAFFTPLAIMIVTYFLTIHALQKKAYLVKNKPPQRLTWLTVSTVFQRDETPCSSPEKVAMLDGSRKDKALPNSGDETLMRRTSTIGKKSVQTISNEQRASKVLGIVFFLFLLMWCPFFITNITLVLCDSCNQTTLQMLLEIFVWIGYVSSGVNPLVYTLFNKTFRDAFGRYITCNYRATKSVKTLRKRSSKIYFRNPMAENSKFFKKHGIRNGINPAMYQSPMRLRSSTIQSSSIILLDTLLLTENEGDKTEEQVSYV
Description: as §1

[5] = target: T1, 5-HT2C receptor (Homo sapiens, UniProt P28335); assay: Receptor affinity, 5-HT2C; assay type: binding
T1 sequence (P28335 33-458): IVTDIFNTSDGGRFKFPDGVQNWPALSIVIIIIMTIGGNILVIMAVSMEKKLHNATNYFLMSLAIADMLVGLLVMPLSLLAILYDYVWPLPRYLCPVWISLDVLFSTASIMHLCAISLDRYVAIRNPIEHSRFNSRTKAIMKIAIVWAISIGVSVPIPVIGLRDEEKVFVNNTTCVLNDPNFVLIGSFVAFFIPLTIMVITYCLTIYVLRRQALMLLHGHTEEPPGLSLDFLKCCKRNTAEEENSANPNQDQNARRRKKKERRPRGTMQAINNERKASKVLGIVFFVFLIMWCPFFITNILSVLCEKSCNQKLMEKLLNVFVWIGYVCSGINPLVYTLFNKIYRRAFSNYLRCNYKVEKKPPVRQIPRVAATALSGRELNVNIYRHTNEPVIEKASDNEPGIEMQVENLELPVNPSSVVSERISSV
Description: as §1

[6] = Phase 1 single-dose escalation study, pharmacokinetics; assay type: in vivo, human; details: for half-life compared with parent compound: after single oral dose of Compound 1, healthy subjects
Protocol: (§2) A phase 1, randomized, double-blind, placebo-controlled, single-dose escalation study was conducted to assess the tolerability, PK, and PD of Compound 1 doses of 1 to 320 mg administered orally as a single dose to a total of 91 healthy subjects.

[7] = Phase 1 multiple-ascending dose study, pharmacokinetics; assay type: in vivo, human; details: for accumulation ratio as measured by AUCtau: 60 and 80 mg Compound 1 TID, after 7 days
Protocol: (§3) A phase 1, randomized, double-blind, placebo-controlled, multiple-ascending dose-escalation study was conducted to assess the safety, tolerability, PD, and steady state PK of Compound 1 from 5 to 80 mg administered orally TID for 7 days in a total of 50 healthy subjects.

[8] = tested on: Raynaud phenomenon attacks; details: intravenous, over 9 weeks, cited from earlier work
[9] = tested on: 5-HT-mediated amplification of platelet aggregation; assay: Phase 1 single-dose escalation study, platelet aggregation with ADP with and without 5-HT; assay type: in vivo, human; details: single oral doses above 1 mg
Protocol: as §2
(§4) PD assessment consisted of measuring pre- and post-dose platelet aggregation using an in vitro assay with ADP with and without 5-HT. The degree of thrombin receptor activating peptide (TRAP)-induced platelet aggregation inhibition between groups was similar. However, Compound 1 inhibited 5-HT-mediated amplification of platelet aggregation at doses above 1 mg.

[10] = tested on: thrombin receptor activating peptide (TRAP)-induced platelet aggregation; assay: Phase 1 single-dose escalation study, TRAP-induced platelet aggregation; assay type: in vivo, human; details: single oral dose, versus placebo groups
Protocol: as §2, §4

[11] = tested on: ex vivo 5-HT-mediated amplification of platelet aggregation; assay: Phase 1 multiple-ascending dose study, ex vivo platelet aggregation; assay type: in vivo, human
Protocol: as §3
Administration of Compound 1 inhibited ex vivo 5-HT-mediated amplification of platelet aggregation.

Compound | effect on cold-induced vasoconstriction in the rabbit foot [2] | affinity for human 5-HT2A [3] | affinity for 5-HT2B receptor [4] | affinity for 5-HT2C receptor [5] | half-life compared with parent compound [6] | accumulation ratio as measured by AUCtau [7] | other results
CCCCC[C@H](O)/C=C/[C@@H]1[C@H]2C/C(=C/CCCC(=O)O)O[C@H]2C[C@H]1O [epoprostenol] |  |  |  |  |  |  | frequency and duration of Raynaud phenomenon attacks [1]: reduced frequency and duration of Raynaud phenomenon attacks; time after the last infusion at which loss in clinical response was observed [1]: 8-10 weeks
O=C(c1ccc(F)cc1)C1CCN(CCn2c(=O)[nH]c3ccccc3c2=O)CC1 [ketanserin, reference compound] | partially reduced |  |  |  |  |  | 
COc1cccc(C(=O)Nc2ccc(OCCN)c(-c3ccnn3C)c2)c1 [Compound M2, N-(4-(2-aminoethoxy)-3-(1-methyl-1H-pyrazol-5-yl)phenyl)-3-methoxybenzamide] |  | high affinity | no appreciable affinity | no appreciable affinity | longer half-lives than the parent compound | approximately 2 | 
CC#CCC(C)[C@H](O)/C=C/[C@@H]1[C@H]2C/C(=C/CCCC(=O)O)C[C@H]2C[C@H]1O (stereo partly drawn) [iloprost] |  |  |  |  |  |  | improvement of severity score ([8]; versus 19.7% in comparator): 34.8%; reduction of weekly Raynaud phenomenon attacks ([8]; versus 22.2% in comparator): 39.1%
COc1cccc(C(=O)Nc2ccc(OCCN3CCOCC3)c(-c3ccnn3C)c2)c1 [Compound 1, 3-methoxy-N-[3-(2-methylpyrazol-3-yl)-4-(2-morpholin-4-ylethoxy)phenyl]benzamide] | partially reduced | high affinity | no appreciable affinity | no appreciable affinity |  |  | half-life as Compound 1 dose was escalated ([6]; single oral dose 1 to 320 mg): half-life increased; dose proportionality of plasma exposure measures ([6]; single oral dose 1 to 320 mg, healthy subjects): greater than dose proportional; absorption ([6]; single oral dose 1 to 320 mg, healthy subjects, all doses): rapidly absorbed; 5-HT-mediated amplification of platelet aggregation [9]: inhibited; degree of TRAP-induced platelet aggregation inhibition between groups [10]: similar; dose proportionality of exposure as measured by AUC ([7]; 5 and 10 mg TID): dose proportional; absorption ([7]; 5 to 80 mg oral TID for 7 days, all doses): rapidly absorbed; dose proportionality of exposure as measured by AUC ([7]; 40, 60, and 80 mg TID, Day 1 and Day 7): greater than dose proportional; Cmax and AUC accumulation ratio ([7]; all doses, Day 7 compared with Day 1, TID for 7 days): less than 2; extent of inhibition of ex vivo 5-HT-mediated amplification of platelet aggregation ([11]; 60 mg and 80 mg doses, following dosing on Days 1, 4, and 7): essentially maximal; ex vivo 5-HT-mediated amplification of platelet aggregation ([11]; 5 to 80 mg oral TID for 7 days): inhibited
COc1cccc(C(=O)Nc2ccc(OCCNCCO)c(-c3ccnn3C)c2)c1 [Compound M1, N-(4-(2-(2-hydroxyethylamino)ethoxy)-3-(1-methyl-1H-pyrazol-5-yl)phenyl)-3-methoxybenzamide] |  | high affinity | no appreciable affinity | no appreciable affinity | longer half-lives than the parent compound | approximately 2 | 

From patent publication US20240252503A1, “METHODS OF TREATMENT” (Arena Pharmaceuticals, Inc., priority 2021, published 2024)
